# Experimental data: ChEMBL document CHEMBL5506023, “Design, Synthesis, and Evaluation of Dihydropyrimidine Derivatives as Selective PDE1 Inhibitors for the Treatment of Liver Fibrosis” (J Med Chem, 2024)
# Active and inactive are the calls of the source. The rule behind the calls is not given here.
# What was measured:
# [1] = tested on: LX-2; experiment: Antifibrotic activity against TGF-beta induced human LX-2 cell activation assessed as downregulation of alpha-SMA expression incubated for 48 hrs by Western blotting analysis; assay type: functional, cell-based
# [2] = tested on: Rattus norvegicus; experiment: Antifibrotic activity against bile duct ligation induced Sprague-Dawley rat liver fibrosis model assessed as reduction in liver damage at 2.5 mg/kg,ip administrated once daily for 21 days by hematoxylin and eosin staining based analysis; assay type: functional, organism-based; conditions: time 21.0 day
# [3] = tested on: Rattus norvegicus; experiment: Antifibrotic activity against bile duct ligation induced Sprague-Dawley rat liver fibrosis model assessed as reduction in total bile acid level at 2.5 mg/kg,ip administrated once daily for 21 days; assay type: functional, organism-based; conditions: time 21.0 day
# [4] = target: cGMP-specific 3',5'-cyclic phosphodiesterase (Homo sapiens, UniProt O76074); experiment: Inhibition of PDE5A (535 to 860 residues) (unknown origin) using 3H-cGMP as substrate
# [5] = Selectivity index, ratio of IC50 for inhibition of PDE1C2 (147 to 531 residues) (unknown origin) using 3H-cGMP as substrate to IC50 for inhibition of PDE2A (580 to 919 residues) (unknown origin) using 3H-cGMP as substrate
# [6] = Observed volume of distribution at steady state in Sprague-Dawley rat at 2.5 mg/kg,iv administration; assay type: ADME, organism-based; conditions: in vivo, read-out: Vdss
# [7] = Selectivity index, ratio of IC50 for inhibition of PDE1C2 (147 to 531 residues) (unknown origin) using 3H-cGMP as substrate to IC50 for inhibition of PDE9A (181 to 506 residues) (unknown origin) using 3H-cGMP as substrate
# [8] = target: Cytochrome P450 3A4 (Homo sapiens, UniProt P08684); experiment: Inhibition of CYP3A4-M in human liver microsomes in presence of NADPH; assay type: ADME, Microsome
# Chain of Cytochrome P450 3A4 (P08684 whole entry): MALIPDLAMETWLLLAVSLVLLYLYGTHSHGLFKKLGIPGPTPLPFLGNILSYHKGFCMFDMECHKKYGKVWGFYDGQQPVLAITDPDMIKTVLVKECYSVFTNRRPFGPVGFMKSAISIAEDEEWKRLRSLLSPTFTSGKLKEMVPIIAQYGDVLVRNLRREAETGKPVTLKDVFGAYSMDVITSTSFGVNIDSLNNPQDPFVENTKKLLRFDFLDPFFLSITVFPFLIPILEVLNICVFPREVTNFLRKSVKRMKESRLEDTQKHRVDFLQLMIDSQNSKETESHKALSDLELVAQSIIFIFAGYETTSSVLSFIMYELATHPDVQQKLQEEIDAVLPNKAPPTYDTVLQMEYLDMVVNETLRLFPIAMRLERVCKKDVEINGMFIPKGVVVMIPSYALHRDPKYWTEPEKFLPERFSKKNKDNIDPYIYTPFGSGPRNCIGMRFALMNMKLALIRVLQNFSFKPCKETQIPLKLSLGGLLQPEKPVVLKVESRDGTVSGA
# [9] = Observed clearance in Sprague-Dawley rat at 2.5 mg/kg,iv administration; assay type: ADME, organism-based; conditions: in vivo
# [10] = tested on: Rattus norvegicus; experiment: Antifibrotic activity against bile duct ligation induced Sprague-Dawley rat liver fibrosis model assessed as reduction in alpha-smooth muscle actin level in liver at 2.5 mg/kg,ip administrated once daily for 21 days by immunofluorescence staining based analysis; assay type: functional, organism-based; conditions: time 21.0 day
# [11] = Cmax in Sprague-Dawley rat at 2.5 mg/kg,iv administration; assay type: ADME, organism-based; conditions: in vivo
# [12] = tested on: Rattus norvegicus; experiment: Antifibrotic activity against bile duct ligation induced Sprague-Dawley rat liver fibrosis model assessed as reduction in AST level at 2.5 mg/kg,ip administrated once daily for 21 days; assay type: functional, organism-based; conditions: time 21.0 day
# [13] = target: High affinity cGMP-specific 3',5'-cyclic phosphodiesterase 9A (Homo sapiens, UniProt O76083); experiment: Inhibition of PDE9A (181 to 506 residues) (unknown origin) using 3H-cGMP as substrate
# Chain of High affinity cGMP-specific 3',5'-cyclic phosphodiesterase 9A (O76083 whole entry, the tested form may be a part): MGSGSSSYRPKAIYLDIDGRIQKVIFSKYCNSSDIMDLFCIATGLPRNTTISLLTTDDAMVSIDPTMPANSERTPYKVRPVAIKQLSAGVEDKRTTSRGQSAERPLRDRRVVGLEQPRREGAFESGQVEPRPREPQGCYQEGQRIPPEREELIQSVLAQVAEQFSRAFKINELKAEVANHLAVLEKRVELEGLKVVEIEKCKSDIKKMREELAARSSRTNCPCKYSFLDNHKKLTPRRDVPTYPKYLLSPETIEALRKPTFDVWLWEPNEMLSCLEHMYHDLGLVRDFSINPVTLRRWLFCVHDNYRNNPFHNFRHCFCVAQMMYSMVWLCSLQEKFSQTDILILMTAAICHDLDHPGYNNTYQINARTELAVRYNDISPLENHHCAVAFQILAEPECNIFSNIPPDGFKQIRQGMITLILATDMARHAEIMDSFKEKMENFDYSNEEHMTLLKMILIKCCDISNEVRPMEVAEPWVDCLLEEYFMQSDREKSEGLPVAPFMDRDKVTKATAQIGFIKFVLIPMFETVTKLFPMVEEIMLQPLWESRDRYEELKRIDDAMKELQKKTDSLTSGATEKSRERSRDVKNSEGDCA
# [14] = target: Cytochrome P450 2C19 (Homo sapiens, UniProt P33261); experiment: Inhibition of CYP2C19 in human liver microsomes in presence of NADPH; assay type: ADME, Microsome
# [15] = Selectivity index, ratio of IC50 for inhibition of PDE1C2 (147 to 531 residues) (unknown origin) using 3H-cGMP as substrate to IC50 for inhibition of PDE8A (480 to 820 residues) (unknown origin) using 3H-cAMP as substrate
# [16] = target: Voltage-gated inwardly rectifying potassium channel KCNH2 (Homo sapiens, UniProt Q12809); experiment: Inhibition of hERG expressed in CHO cells by automated patch clamp electrophysiology analysis; assay type: toxicity, cell-based
# Chain of Voltage-gated inwardly rectifying potassium channel KCNH2 (Q12809 whole entry): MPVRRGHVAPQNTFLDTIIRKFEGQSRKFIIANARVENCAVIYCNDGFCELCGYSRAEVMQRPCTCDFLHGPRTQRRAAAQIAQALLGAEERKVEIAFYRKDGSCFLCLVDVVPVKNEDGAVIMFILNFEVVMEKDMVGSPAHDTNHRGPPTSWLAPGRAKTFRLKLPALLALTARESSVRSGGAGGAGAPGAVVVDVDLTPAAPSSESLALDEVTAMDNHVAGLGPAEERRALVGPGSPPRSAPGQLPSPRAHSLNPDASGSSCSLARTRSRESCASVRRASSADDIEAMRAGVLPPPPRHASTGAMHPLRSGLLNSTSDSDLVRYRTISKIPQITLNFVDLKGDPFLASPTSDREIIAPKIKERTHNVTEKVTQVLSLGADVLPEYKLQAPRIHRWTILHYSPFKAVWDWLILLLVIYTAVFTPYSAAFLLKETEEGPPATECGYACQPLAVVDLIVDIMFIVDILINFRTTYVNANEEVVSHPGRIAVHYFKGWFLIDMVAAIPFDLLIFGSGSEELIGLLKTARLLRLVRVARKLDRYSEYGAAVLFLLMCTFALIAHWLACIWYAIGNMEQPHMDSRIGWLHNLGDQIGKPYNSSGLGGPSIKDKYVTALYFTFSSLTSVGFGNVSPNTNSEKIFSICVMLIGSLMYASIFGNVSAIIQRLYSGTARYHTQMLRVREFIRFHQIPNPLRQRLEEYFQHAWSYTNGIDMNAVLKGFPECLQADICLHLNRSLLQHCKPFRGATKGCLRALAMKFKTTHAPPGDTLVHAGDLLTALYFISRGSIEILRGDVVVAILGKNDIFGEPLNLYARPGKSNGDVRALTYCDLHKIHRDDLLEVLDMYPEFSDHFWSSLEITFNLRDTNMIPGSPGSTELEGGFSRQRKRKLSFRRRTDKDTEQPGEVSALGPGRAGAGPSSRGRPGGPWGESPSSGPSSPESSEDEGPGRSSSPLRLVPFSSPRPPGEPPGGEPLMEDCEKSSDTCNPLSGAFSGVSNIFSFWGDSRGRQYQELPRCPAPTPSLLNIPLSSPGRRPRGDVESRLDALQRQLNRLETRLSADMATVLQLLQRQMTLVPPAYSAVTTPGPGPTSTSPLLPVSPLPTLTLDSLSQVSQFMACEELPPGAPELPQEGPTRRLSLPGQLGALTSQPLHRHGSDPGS
# [17] = tested on: Rattus norvegicus; experiment: Antifibrotic activity against bile duct ligation induced Sprague-Dawley rat liver fibrosis model assessed as downregulation of alpha-SMA expression in liver at 2.5 mg/kg,ip administrated once daily for 21 days by Western blotting analysis; assay type: functional, organism-based; conditions: time 21.0 day
# [18] = Half life in Sprague-Dawley rat at 2.5 mg/kg,iv administration; assay type: ADME, organism-based; conditions: in vivo
# [19] = Selectivity index, ratio of IC50 for inhibition of PDE1C2 (147 to 531 residues) (unknown origin) using 3H-cGMP as substrate to IC50 for inhibition of PDE4D (86 to 413 residues) (unknown origin) using 3H-cAMP as substrate
# [20] = tested on: Rattus norvegicus; experiment: Antifibrotic activity against bile duct ligation induced Sprague-Dawley rat liver fibrosis model assessed as reduction in fibrotic lesion at 2.5 mg/kg,ip administrated once daily for 21 days by hematoxylin and eosin staining based analysis; assay type: functional, organism-based; conditions: time 21.0 day
# [21] = target: 3',5'-cyclic-AMP phosphodiesterase 4D (Homo sapiens, UniProt Q08499); experiment: Inhibition of PDE4D (86 to 413 residues) (unknown origin) using 3H-cAMP as substrate
# Chain of 3',5'-cyclic-AMP phosphodiesterase 4D (Q08499 whole entry, the tested form may be a part): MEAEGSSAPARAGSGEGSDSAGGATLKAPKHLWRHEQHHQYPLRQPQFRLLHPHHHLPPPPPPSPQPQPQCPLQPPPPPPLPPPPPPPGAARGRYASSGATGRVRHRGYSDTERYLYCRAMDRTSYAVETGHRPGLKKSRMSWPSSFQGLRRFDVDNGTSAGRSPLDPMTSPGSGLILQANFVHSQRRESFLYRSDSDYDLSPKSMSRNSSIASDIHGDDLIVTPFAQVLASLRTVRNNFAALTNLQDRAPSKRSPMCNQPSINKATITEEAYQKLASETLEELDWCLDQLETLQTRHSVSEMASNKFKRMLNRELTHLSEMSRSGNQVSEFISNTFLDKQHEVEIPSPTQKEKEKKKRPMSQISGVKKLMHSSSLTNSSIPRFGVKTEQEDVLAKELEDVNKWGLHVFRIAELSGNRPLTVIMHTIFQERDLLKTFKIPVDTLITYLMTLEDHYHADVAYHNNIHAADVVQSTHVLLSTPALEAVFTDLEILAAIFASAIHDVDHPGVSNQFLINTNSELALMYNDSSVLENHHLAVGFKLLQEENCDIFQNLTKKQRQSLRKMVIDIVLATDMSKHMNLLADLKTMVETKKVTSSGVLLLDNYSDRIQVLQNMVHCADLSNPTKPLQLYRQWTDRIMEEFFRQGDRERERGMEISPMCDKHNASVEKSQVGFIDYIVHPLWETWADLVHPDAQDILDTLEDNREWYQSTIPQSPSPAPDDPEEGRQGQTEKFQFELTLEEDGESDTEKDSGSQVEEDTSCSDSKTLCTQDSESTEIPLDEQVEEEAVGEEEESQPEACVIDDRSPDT
# [22] = target: Cytochrome P450 2C9 (Homo sapiens, UniProt P11712); experiment: Inhibition of CYP2C9 in human liver microsomes in presence of NADPH; assay type: ADME, Microsome
# Chain of Cytochrome P450 2C9 (P11712 whole entry, the tested form may be a part): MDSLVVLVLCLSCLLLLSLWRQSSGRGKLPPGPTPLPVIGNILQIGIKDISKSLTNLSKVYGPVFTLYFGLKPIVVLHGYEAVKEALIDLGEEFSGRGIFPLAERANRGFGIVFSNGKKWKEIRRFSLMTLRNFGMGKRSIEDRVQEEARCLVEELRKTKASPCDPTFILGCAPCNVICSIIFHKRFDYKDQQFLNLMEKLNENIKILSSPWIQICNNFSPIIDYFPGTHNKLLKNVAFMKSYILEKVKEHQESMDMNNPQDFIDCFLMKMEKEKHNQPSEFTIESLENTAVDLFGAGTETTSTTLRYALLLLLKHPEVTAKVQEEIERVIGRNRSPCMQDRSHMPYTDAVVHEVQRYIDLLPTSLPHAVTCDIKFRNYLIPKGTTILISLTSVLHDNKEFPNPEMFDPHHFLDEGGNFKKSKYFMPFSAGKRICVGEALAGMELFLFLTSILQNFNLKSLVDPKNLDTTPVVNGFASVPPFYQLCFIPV
# [23] = Selectivity index, ratio of IC50 for inhibition of PDE1C2 (147 to 531 residues) (unknown origin) using 3H-cGMP as substrate to IC50 for inhibition of PDE10A (449 to 770 residues) (unknown origin) using 3H-cAMP as substrate
# [24] = AUC (0 to infinity) in Sprague-Dawley rat at 2.5 mg/kg,iv administration; assay type: ADME, organism-based; conditions: in vivo
# [25] = Half life in rat liver microsomes at 1.5 uM; assay type: ADME, Microsome
# [26] = target: cGMP-dependent 3',5'-cyclic phosphodiesterase (Homo sapiens, UniProt O00408); experiment: Inhibition of PDE2A (580 to 919 residues) (unknown origin) using 3H-cGMP as substrate
# Chain of cGMP-dependent 3',5'-cyclic phosphodiesterase (O00408 whole entry, the tested form may be a part): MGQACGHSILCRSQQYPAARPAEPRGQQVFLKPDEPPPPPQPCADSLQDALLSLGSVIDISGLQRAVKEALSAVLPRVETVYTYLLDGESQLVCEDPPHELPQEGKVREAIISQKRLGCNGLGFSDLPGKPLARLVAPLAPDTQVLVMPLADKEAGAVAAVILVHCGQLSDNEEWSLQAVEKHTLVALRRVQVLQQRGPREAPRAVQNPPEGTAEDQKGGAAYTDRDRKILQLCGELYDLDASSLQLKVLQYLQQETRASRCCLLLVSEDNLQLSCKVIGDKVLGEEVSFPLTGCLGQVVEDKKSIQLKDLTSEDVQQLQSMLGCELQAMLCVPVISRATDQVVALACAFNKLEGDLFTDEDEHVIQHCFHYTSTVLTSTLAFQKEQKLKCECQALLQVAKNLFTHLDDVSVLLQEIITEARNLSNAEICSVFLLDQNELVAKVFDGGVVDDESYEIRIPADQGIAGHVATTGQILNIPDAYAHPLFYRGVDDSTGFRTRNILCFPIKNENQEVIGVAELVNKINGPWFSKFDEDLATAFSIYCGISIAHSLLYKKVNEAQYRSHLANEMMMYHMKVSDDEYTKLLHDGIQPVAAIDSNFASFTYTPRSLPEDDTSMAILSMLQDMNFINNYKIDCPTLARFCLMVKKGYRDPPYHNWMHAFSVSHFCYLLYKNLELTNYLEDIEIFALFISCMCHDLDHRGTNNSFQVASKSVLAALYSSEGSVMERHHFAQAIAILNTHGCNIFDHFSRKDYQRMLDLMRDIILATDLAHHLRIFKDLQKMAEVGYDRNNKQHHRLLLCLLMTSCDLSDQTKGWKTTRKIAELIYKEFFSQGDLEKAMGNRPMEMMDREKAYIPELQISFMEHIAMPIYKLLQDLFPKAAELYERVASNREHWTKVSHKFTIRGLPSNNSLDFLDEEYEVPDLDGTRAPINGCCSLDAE
# [27] = tested on: Rattus norvegicus; experiment: Antifibrotic activity against bile duct ligation induced Sprague-Dawley rat liver fibrosis model assessed as downregulation of collagen I expression in liver at 2.5 mg/kg,ip administrated once daily for 21 days by Western blotting analysis; assay type: functional, organism-based; conditions: time 21.0 day
# [28] = tested on: Rattus norvegicus; experiment: Antifibrotic activity against bile duct ligation induced Sprague-Dawley rat liver fibrosis model assessed as reduction in collagen deposition at 2.5 mg/kg,ip administrated once daily for 21 days by Masson's trichome staining based analysis; assay type: functional, organism-based; conditions: time 21.0 day
# [29] = Acute toxicity in Kunming mouse assessed as lethal dose at po administration for 14 days; assay type: organism-based; conditions: in vivo, 336 h, time 14 day
# [30] = tested on: Rattus norvegicus; experiment: Antifibrotic activity against bile duct ligation induced Sprague-Dawley rat liver fibrosis model assessed as increase in cAMP level in liver at 2.5 mg/kg,ip administrated once daily for 21 days by ELISA; assay type: functional, organism-based; conditions: time 21.0 day
# [31] = Selectivity index, ratio of IC50 for inhibition of PDE1C2 (147 to 531 residues) (unknown origin) using 3H-cGMP as substrate to IC50 for inhibition of PDE7A (130 to 482 residues) (unknown origin) using 3H-cAMP as substrate
# [32] = target: High affinity 3',5'-cyclic-AMP phosphodiesterase 7A (Homo sapiens, UniProt Q13946); experiment: Inhibition of PDE7A (130 to 482 residues) (unknown origin) using 3H-cAMP as substrate at 5000 nM relative to control
# Chain of High affinity 3',5'-cyclic-AMP phosphodiesterase 7A (Q13946 whole entry, the tested form may be a part): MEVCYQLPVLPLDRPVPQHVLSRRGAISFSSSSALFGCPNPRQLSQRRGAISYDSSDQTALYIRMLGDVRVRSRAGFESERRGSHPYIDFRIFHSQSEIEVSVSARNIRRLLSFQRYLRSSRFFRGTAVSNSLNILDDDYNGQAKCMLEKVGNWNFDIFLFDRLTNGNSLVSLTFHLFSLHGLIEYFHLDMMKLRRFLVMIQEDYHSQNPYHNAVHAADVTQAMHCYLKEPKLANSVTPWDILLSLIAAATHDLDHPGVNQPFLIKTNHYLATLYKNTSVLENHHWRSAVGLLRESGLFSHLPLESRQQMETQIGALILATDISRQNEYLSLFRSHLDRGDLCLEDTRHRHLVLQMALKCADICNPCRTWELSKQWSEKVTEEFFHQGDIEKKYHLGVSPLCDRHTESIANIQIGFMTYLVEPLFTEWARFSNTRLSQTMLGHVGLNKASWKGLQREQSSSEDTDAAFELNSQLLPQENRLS
# [33] = tested on: Rattus norvegicus; experiment: Antifibrotic activity against bile duct ligation induced Sprague-Dawley rat liver fibrosis model assessed as increase in cGMP level in liver at 2.5 mg/kg,ip administrated once daily for 21 days by ELISA; assay type: functional, organism-based; conditions: time 21.0 day
# [34] = tested on: LX-2; experiment: Antifibrotic activity against TGF-beta induced human LX-2 cell activation assessed as downregulation of collagen-I expression incubated for 48 hrs by Western blotting analysis; assay type: functional, cell-based
compound,measurement,setting,value
CC1=C(C(=O)OCC2CCCCC2)C(c2ccc(OC(F)F)c(OCC3CC3)c2)N(C(=O)SCc2ccccc2)C(=O)N1 (centres undefined),Activity,[1],Dose-Dependent Effect
same,Activity,[2],Active
same,Activity,[3],Active
same,IC50,[4],1.68 µM
same,Ratio IC50,[5],354
same,Vd,[6],0.698 L/kg
same,Ratio IC50,[7],210
same,IC50,[8],> 25 µM
same,clearance,[9],6.56 mL/min/kg
same,Activity,[10],Active
same,Cmax,[11],25000 ng/mL
same,Activity,[12],Active
same,IC50,[13],2.1 µM
same,IC50,[14],> 25 µM
same,Ratio IC50,[15],176
same,IC50,[16],> 40 µM
same,Activity,[17],Active
same,half-life,[18],7.51 h
same,Ratio IC50,[19],205
same,Activity,[20],Active
same,IC50,[21],2.05 µM
same,IC50,[22],> 25 µM
same,Ratio IC50,[23],60
same,AUC(0-inf),[24],6320 ng·h/mL
same,half-life at 1.5 µM,[25],0.235 h
same,IC50,[26],3.54 µM
same,Activity,[27],Active
same,Activity,[28],Active
same,LD,[29],> 1500 mg/kg
same,Activity,[30],Active
same,Ratio IC50,[31],> 500
same,inhibition,[32],< 50%
same,Activity,[33],inactive
same,Activity,[34],Dose-Dependent Effect
